# Test results as given in the supplement of paper PMC10307832.
# What was measured:
# Experiment in all cases: relative viability (nuclei count vs DMSO), 5 days (fraction); higher = more cells survive
# GW-2580 + Vorinostat = compound: COC1=CC=C(C=C1)COC2=C(C=C(C=C2)CC3=CN=C(N=C3N)N)OC [GW-2580] + O=C(CCCCCCC(=O)Nc1ccccc1)NO [Vorinostat] (partner 1 µM)
# In short: (§1)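 Lung cancer cell lines were seeded in 1536-well plates and dosed by pin tool the next day, with either a single drug or a fixed anchor-drug dose combined with five library-drug doses (not always all listed) spaced in √10 steps. Five days later, one step fixed the cells and stained their nuclei (final 0.05% Triton X-100, 1% formaldehyde, 1 ug/ml Hoechst), and nuclei were counted on 4× images. Relative viability is the nuclei count in treated wells divided by the count in vehicle wells, and each value is the median of duplicate plates.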
# Fedratinib + Tozasertib = compound: Cc1cnc(Nc2ccc(OCCN3CCCC3)cc2)nc1Nc1cccc(S(=O)(=O)NC(C)(C)C)c1 [Fedratinib] + Cc1cc(Nc2cc(N3CCN(C)CC3)nc(Sc3ccc(NC(=O)C4CC4)cc3)n2)n[nH]1 [Tozasertib] (partner 0.1 µM)
# In short: as §1
# Fedratinib + Dasatinib = compound: Cc1cnc(Nc2ccc(OCCN3CCCC3)cc2)nc1Nc1cccc(S(=O)(=O)NC(C)(C)C)c1 [Fedratinib] + Cc1nc(Nc2ncc(C(=O)Nc3c(C)cccc3Cl)s2)cc(N2CCN(CCO)CC2)n1 [Dasatinib] (partner 0.075 µM)
# In short: as §1
# Fedratinib + Decitabine = compound: Cc1cnc(Nc2ccc(OCCN3CCCC3)cc2)nc1Nc1cccc(S(=O)(=O)NC(C)(C)C)c1 [Fedratinib] + Nc1ncn([C@H]2C[C@H](O)[C@@H](CO)O2)c(=O)n1 [Decitabine] (partner 2 µM)
# In short: as §1
# Fedratinib + Vorinostat = compound: Cc1cnc(Nc2ccc(OCCN3CCCC3)cc2)nc1Nc1cccc(S(=O)(=O)NC(C)(C)C)c1 [Fedratinib] + O=C(CCCCCCC(=O)Nc1ccccc1)NO [Vorinostat] (partner 1 µM)
# In short: as §1
# Fedratinib + Olaparib = compound: Cc1cnc(Nc2ccc(OCCN3CCCC3)cc2)nc1Nc1cccc(S(=O)(=O)NC(C)(C)C)c1 [Fedratinib] + O=C(c1cc(Cc2n[nH]c(=O)c3ccccc23)ccc1F)N1CCN(C(=O)C2CC2)CC1 [Olaparib] (partner 8 µM)
# In short: as §1
Cell Line,relative viability (GW-2580 + Vorinostat; first compound 0.08 µM),relative viability (GW-2580 + Vorinostat; first compound 0.8 µM),relative viability (GW-2580 + Vorinostat; first compound 2.53 µM),relative viability (GW-2580 + Vorinostat; first compound 8 µM),relative viability (Fedratinib + Tozasertib; first compound 0.1 µM),relative viability (Fedratinib + Tozasertib; first compound 0.3162 µM),relative viability (Fedratinib + Tozasertib; first compound 1 µM),relative viability (Fedratinib + Dasatinib; first compound 0.1 µM),relative viability (Fedratinib + Dasatinib; first compound 0.3162 µM),relative viability (Fedratinib + Dasatinib; first compound 1 µM),relative viability (Fedratinib + Decitabine; first compound 0.1 µM),relative viability (Fedratinib + Decitabine; first compound 0.3162 µM),relative viability (Fedratinib + Decitabine; first compound 1 µM),relative viability (Fedratinib + Vorinostat; first compound 0.1 µM),relative viability (Fedratinib + Vorinostat; first compound 0.3162 µM),relative viability (Fedratinib + Vorinostat; first compound 1 µM),relative viability (Fedratinib + Olaparib; first compound 0.1 µM),relative viability (Fedratinib + Olaparib; first compound 0.3162 µM),relative viability (Fedratinib + Olaparib; first compound 1 µM)
HARA,0.561,0.601,0.548,0.588,0.107,0.105,0.0905,0.217,0.155,0.24,0.485,0.551,0.427,0.512,0.629,0.51,0.785,0.826,0.557
NCI-H596,0.591,0.595,0.495,0.564,0.899,0.878,0.916,0.512,0.628,0.538,0.937,1.01,0.975,0.602,0.573,0.439,0.643,0.6,0.572
NCI-H23,0.53,0.782,0.462,0.546,0.528,0.364,0.303,0.805,0.415,0.911,0.322,0.338,0.324,0.56,0.36,0.453,0.286,0.3,0.289
LCLC-97TM1,0.806,0.74,0.659,0.684,0.175,0.213,0.19,0.822,0.831,0.723,0.273,0.255,0.214,0.74,0.669,0.456,0.588,0.386,0.428
EPLC-272H,0.381,0.409,0.301,0.334,0.178,0.318,0.251,0.364,0.345,0.0536,0.312,0.393,0.344,0.547,0.375,0.335,0.601,0.847,0.459
NCI-H2342,0.711,0.75,0.625,0.751,0.51,0.713,0.695,0.314,0.309,0.273,0.753,0.759,0.745,0.94,0.71,0.926,0.462,0.456,0.472
NCI-H1915,0.559,0.583,0.442,0.508,0.329,0.417,0.328,0.258,0.307,0.179,0.266,0.258,0.247,0.539,0.507,0.459,0.262,0.227,0.222
NCI-H2405,1.05,1.19,0.9,0.785,0.418,0.705,0.612,0.191,0.244,0.159,0.729,0.725,0.663,0.946,0.982,0.814,0.837,0.835,0.802
NCI-H322M,0.843,0.996,0.893,0.903,0.52,0.447,0.333,0.254,0.24,0.222,0.657,0.749,0.64,0.87,0.969,0.735,0.861,0.772,0.643
NCI-H2170,0.932,0.903,0.64,0.775,0.481,0.743,0.599,0.566,0.416,0.339,0.478,0.466,0.443,0.886,0.776,0.654,0.63,0.581,0.562
NCI-H522,0.976,0.862,0.861,0.986,0.527,0.514,0.573,0.88,1.05,0.599,0.634,0.698,0.668,0.703,0.82,0.895,0.655,0.643,0.615
NCI-H1395,0.669,0.662,0.623,0.742,0.623,0.874,0.653,0.36,0.45,0.378,0.628,0.738,0.622,0.588,0.807,0.561,0.416,0.468,0.444
NCI-H358,0.754,0.816,0.631,0.984,0.0945,0.0925,0.0987,0.148,0.147,0.129,0.156,0.21,0.101,0.656,0.654,0.634,0.62,0.536,0.44
NCI-H838,0.789,0.782,0.691,0.771,0.248,0.271,0.21,0.281,0.29,0.239,0.444,0.454,0.431,0.713,0.693,0.575,0.677,0.837,0.6
